{
  "source": "patent US20110130464A1",
  "about": "“Combination Agent for Improving Carcass Performance in Finishing Pigs” (IGENE BIOTECHNOLOGY, INC., priority 2008, published 2011)",
  "key": {"finishing pigs [1]": {"test_system": "finishing pigs", "assay": "Growth performance and carcass characteristics of finishing pigs fed astaxanthin with or without Paylean", "format": "in vivo", "conditions": "for ADFI (Average Daily Feed Intake) / ADG (Average Daily Gain) / F/G (Pounds of feed to gain one pound of weight) / G/F (Reciprocal of F/G): 26 d", "procedure": "Procedures used in the experiment were approved by the Kansas State University (KSU) Animal Care and Use Committee. The project was conducted at the KSU Swine Teaching and Research Farm. Pigs were housed in an environmentally-regulated finishing building with pens over a totally slatted floor that provided approximately 8 ft^2 per pig. Each pen was equipped with a dry, self-feeder and one nipple waterer, providing ad libitum access to feed and water. The facility was a mechanically-ventilated room with a pull-plug, manure storage pit.\nA total of 144 finishing pigs from a single group (72 barrows and 72 gilts) were utilized for the experiments. Pigs were blocked by weight and gender, and allotted to one of 9 dietary treatments for an average period of 27 days pre-harvest. Each pen served as an experimental unit, with 2 pigs/pen and 8 replications to provide 16 pigs per treatment.\nExperimental diets were provided in meal form and astaxanthin (0, 5, 7.5 and 10 ppm) was added to the control diet at the expense of corn starch to achieve the dietary treatments (Table 1). Paylean® was added to the diets indicated to contain 10 ppm.\nPigs were weighed on day 0, 7, 14, 21, and ˜27 to calculate average daily gain, average daily feed intake, and feed efficiency. Upon completion of the collection of growth performance data, all pigs were euthanized and processed for the collection of standard carcass measurements (dressing percentage, 10th rib backfat depth, loin muscle area, etc.).\nData were analyzed as a randomized complete block design using the PROC MIXED procedure of SAS with pen as the experimental unit. Linear and quadratic polynomial contrasts were used to determine the effect of increasing astaxanthin, with and without addition of Paylean®.\nThe source of natural astaxanthin used in this example was the yeast Phaffia rhodozyma which is commercially available under the trade name Aquasta® containing 10000 ppm astaxanthin, by weight."}, "pigs": {"test_system": "pigs", "conditions": "Trapp et al. 2002; cited from earlier work"}, "finishing pigs [2]": {"test_system": "finishing pigs", "conditions": "Yang et al., cited from earlier work"}, "[3]": {"conditions": "10 ppm Paylean, 0 ppm astaxanthin"}, "[4]": {"conditions": "5 ppm astaxanthin in diet, without Paylean"}, "[5]": {"conditions": "7.5 ppm astaxanthin in diet, without Paylean"}, "[6]": {"conditions": "10 ppm astaxanthin in diet, without Paylean"}},
  "note": "Where a name gives a salt, the structure may show the parent alone.",
  "data": [
    {"smiles": "CC(CCc1ccc(O)cc1)NCC(O)c1ccc(O)cc1", "note": "(stereo not drawn) [Paylean®, ractopamine hydrochloride, reference compound]", "values": [
      {"measurement": "LEA (loin eye areas), average", "setting": "finishing pigs [1]; 10 ppm Paylean alone", "result": 8.29, "unit": "square inches"},
      {"measurement": "increase of LEA over control pigs", "setting": "finishing pigs [1]; 10 ppm Paylean alone vs control diet without astaxanthin or Paylean", "result": 1.03, "unit": "square inches"},
      {"measurement": "BF-10th rib (Back Fat)", "setting": "finishing pigs [1]; [3]", "result": 0.81, "unit": "in."},
      {"measurement": "BF-avg. (Back Fat)", "setting": "finishing pigs [1]; [3]", "result": 1.06, "unit": "in."},
      {"measurement": "Body weight, Final", "setting": "finishing pigs [1]; [3]", "result": 297.1, "unit": "lb"},
      {"measurement": "Carcass Yield", "setting": "finishing pigs [1]; [3]", "result": 72.0, "unit": "%"},
      {"measurement": "HCW (Hot Carcass Weight)", "setting": "finishing pigs [1]; [3]", "result": 213.9, "unit": "lb"},
      {"measurement": "LEA-10th rib (Loin Eye Area)", "setting": "finishing pigs [1]; [3]", "result": 8.29, "unit": "in^2"},
      {"measurement": "PFFL (Percent Fat Free Lean, SFFL/HCW)", "setting": "finishing pigs [1]; [3]", "result": 53.8, "unit": "%"},
      {"measurement": "SFFL (Standard Fat Free Lean)", "setting": "finishing pigs [1]; [3]", "result": 115.2, "unit": "lb"},
      {"measurement": "SFFL (standard fat free lean)", "setting": "finishing pigs [1]; 10 ppm Paylean, control 108.4 pounds", "result": 115.2, "unit": "pounds"},
      {"measurement": "ADFI (Average Daily Feed Intake)", "setting": "finishing pigs [1]; [3]", "result": 8.05, "unit": "lb"},
      {"measurement": "ADG (Average Daily Gain)", "setting": "finishing pigs [1]; [3]", "result": 2.83, "unit": "lb"},
      {"measurement": "F/G (Pounds of feed to gain one pound of weight)", "setting": "finishing pigs [1]; [3]", "result": 2.86},
      {"measurement": "G/F (Reciprocal of F/G)", "setting": "finishing pigs [1]; [3]", "result": 0.35},
      {"measurement": "hot carcass weight, dressing percent and loin eye area", "setting": "pigs", "result": "increase"}
    ]},
    {"smiles": "CC1=C(/C=C/C(C)=C/C=C/C(C)=C/C=C/C=C(C)/C=C/C=C(C)/C=C/C2=C(C)C(=O)C(O)CC2(C)C)C(C)(C)CC(O)C1=O", "note": "(stereo not drawn) [astaxanthin, 3,3′-dihydroxy-β,β-carotene-4,4′ dione]", "values": [
      {"measurement": "BF-10th rib (Back Fat)", "setting": "finishing pigs [1]; [4]", "result": 0.84, "unit": "in."},
      {"measurement": "BF-avg. (Back Fat)", "setting": "finishing pigs [1]; [4]", "result": 1.12, "unit": "in."},
      {"measurement": "Body weight, Final", "setting": "finishing pigs [1]; [4]", "result": 287.6, "unit": "lb"},
      {"measurement": "Carcass Yield", "setting": "finishing pigs [1]; [4]", "result": 70.4, "unit": "%"},
      {"measurement": "HCW (Hot Carcass Weight)", "setting": "finishing pigs [1]; [4]", "result": 202.6, "unit": "lb"},
      {"measurement": "LEA-10th rib (Loin Eye Area)", "setting": "finishing pigs [1]; [4]", "result": 7.55, "unit": "in^2"},
      {"measurement": "PFFL (Percent Fat Free Lean, SFFL/HCW)", "setting": "finishing pigs [1]; [4]", "result": 52.8, "unit": "%"},
      {"measurement": "SFFL (Standard Fat Free Lean)", "setting": "finishing pigs [1]; [4]", "result": 107.1, "unit": "lb"},
      {"measurement": "LEA (loin eye areas), average", "setting": "finishing pigs [1]; 7.5 ppm astaxanthin alone", "result": 7.36, "unit": "square inches"},
      {"measurement": "increase of LEA over control pigs", "setting": "finishing pigs [1]; 7.5 ppm astaxanthin alone vs diets without astaxanthin", "result": 0.10, "unit": "square inches"},
      {"measurement": "BF-10th rib (Back Fat)", "setting": "finishing pigs [1]; [5]", "result": 0.81, "unit": "in."},
      {"measurement": "BF-avg. (Back Fat)", "setting": "finishing pigs [1]; [5]", "result": 1.02, "unit": "in."},
      {"measurement": "Body weight, Final", "setting": "finishing pigs [1]; [5]", "result": 287.4, "unit": "lb"},
      {"measurement": "Carcass Yield", "setting": "finishing pigs [1]; [5]", "result": 71.5, "unit": "%"},
      {"measurement": "HCW (Hot Carcass Weight)", "setting": "finishing pigs [1]; [5]", "result": 203.4, "unit": "lb"},
      {"measurement": "LEA-10th rib (Loin Eye Area)", "setting": "finishing pigs [1]; [5]", "result": 7.36, "unit": "in^2"},
      {"measurement": "PFFL (Percent Fat Free Lean, SFFL/HCW)", "setting": "finishing pigs [1]; [5]", "result": 52.9, "unit": "%"},
      {"measurement": "SFFL (Standard Fat Free Lean)", "setting": "finishing pigs [1]; [5]", "result": 107.6, "unit": "lb"},
      {"measurement": "BF-10th rib (Back Fat)", "setting": "finishing pigs [1]; [6]", "result": 0.77, "unit": "in."},
      {"measurement": "BF-avg. (Back Fat)", "setting": "finishing pigs [1]; [6]", "result": 1.04, "unit": "in."},
      {"measurement": "Body weight, Final", "setting": "finishing pigs [1]; [6]", "result": 286.2, "unit": "lb"},
      {"measurement": "Carcass Yield", "setting": "finishing pigs [1]; [6]", "result": 70.8, "unit": "%"},
      {"measurement": "HCW (Hot Carcass Weight)", "setting": "finishing pigs [1]; [6]", "result": 202.5, "unit": "lb"},
      {"measurement": "LEA-10th rib (Loin Eye Area)", "setting": "finishing pigs [1]; [6]", "result": 7.53, "unit": "in^2"},
      {"measurement": "PFFL (Percent Fat Free Lean, SFFL/HCW)", "setting": "finishing pigs [1]; [6]", "result": 53.7, "unit": "%"},
      {"measurement": "SFFL (Standard Fat Free Lean)", "setting": "finishing pigs [1]; [6]", "result": 108.6, "unit": "lb"},
      {"measurement": "ADFI (Average Daily Feed Intake)", "setting": "finishing pigs [1]; [4]", "result": 8.06, "unit": "lb"},
      {"measurement": "ADG (Average Daily Gain)", "setting": "finishing pigs [1]; [4]", "result": 2.34, "unit": "lb"},
      {"measurement": "F/G (Pounds of feed to gain one pound of weight)", "setting": "finishing pigs [1]; [4]", "result": 3.44},
      {"measurement": "G/F (Reciprocal of F/G)", "setting": "finishing pigs [1]; [4]", "result": 0.29},
      {"measurement": "ADFI (Average Daily Feed Intake)", "setting": "finishing pigs [1]; [5]", "result": 8.03, "unit": "lb"},
      {"measurement": "ADG (Average Daily Gain)", "setting": "finishing pigs [1]; [5]", "result": 2.45, "unit": "lb"},
      {"measurement": "F/G (Pounds of feed to gain one pound of weight)", "setting": "finishing pigs [1]; [5]", "result": 3.28},
      {"measurement": "G/F (Reciprocal of F/G)", "setting": "finishing pigs [1]; [5]", "result": 0.31},
      {"measurement": "ADFI (Average Daily Feed Intake)", "setting": "finishing pigs [1]; [6]", "result": 8.01, "unit": "lb"},
      {"measurement": "ADG (Average Daily Gain)", "setting": "finishing pigs [1]; [6]", "result": 2.41, "unit": "lb"},
      {"measurement": "F/G (Pounds of feed to gain one pound of weight)", "setting": "finishing pigs [1]; [6]", "result": 3.35},
      {"measurement": "G/F (Reciprocal of F/G)", "setting": "finishing pigs [1]; [6]", "result": 0.30},
      {"measurement": "SFFL versus pigs fed a diet without astaxanthin", "setting": "finishing pigs [1]; astaxanthin alone", "result": "no statistical difference"},
      {"measurement": "production performance", "setting": "finishing pigs [2]; 0, 1.5 and 3.0 ppm astaxanthin in diet of finishing pigs", "result": "no significant effect"},
      {"measurement": "dressing percentage, back fat thickness and loin muscle area", "setting": "finishing pigs [2]; increasing dietary astaxanthin level (0, 1.5, 3.0 ppm)", "result": "linear effect"}
    ]}
  ]
}
